According to PMC10317887, “Hypoglycaemia frequency and physiological response after double or triple doses of once-weekly insulin icodec vs once-daily insulin glargine U100 in type 2 diabetes: a randomised crossover trial” (Diabetologia, 2023):
Where two headings read alike, the source gives them in different places.

Tests used:
[1] = test system: individuals with type 2 diabetes; type: in vivo, human; conditions: for Mean PGnadir, treatment ratio (95% CI) icodec vs glargine U100 / Mean PGnadir, estimated geometric mean: all participants; for Time to recovery from PGnadir to PG5.5 mmol/l, estimated geometric mean: constant i.v. glucose 5.5 mg kg^−1 min^−1; for Time to recovery from PGnadir to PG5.5 mmol/l, estimated geometric mean / Glucose needed from PGnadir to PG5.5 mmol/l, estimated geometric mean: individuals with PG <3.3 mmol/l at initiation of recovery; for Time to decline from PG5.5 mmol/l to PG3.9 mmol/l, estimated geometric mean: individuals with PG decline to <3.0 mmol/l and/or hypoglycaemia symptoms; for Time to decline from PG5.5 mmol/l to PG3.0 mmol/l, estimated geometric mean: individuals with PG decline to <3.0 mmol/l; for Mean PGnadir in the subgroup analysis: subgroup PGnadir <3.0 mmol/l and/or symptoms
Method: During the two treatment periods, participants received once-weekly icodec for 6 weeks or once-daily glargine U100 for 11 days in randomised order. […] Treatment periods were separated by 35–49 days of washout following icodec and 4–11 days of washout following glargine U100. Icodec (4200 nmol/ml; Novo Nordisk, Bagsværd, Denmark) was administered s.c. in the left thigh at 20:00 hours by qualified site staff using a NovoPen 4 pen injector (Novo Nordisk). […] At the start of week 1, a one-time additional 100% icodec dose was administered to accelerate time to steady state, followed by a normal dose at week 2, a double dose at week 3 (prior to hypoglycaemia induction), no dose at week 4 (due to the double dose given the week before), a normal dose at week 5, and a triple dose at week 6 (prior to hypoglycaemia induction). Insulin glargine U100 (100 U/ml [600 nmol/ml]; Sanofi, Paris, France) was administered s.c. in the right thigh at 09:00 hours by qualified site staff using a SoloStar pen injector (Sanofi). A normal dose of once-daily glargine U100 was established during run in. Glargine U100 was administered at a normal dose for 3 days followed by a double dose on day 4 (prior to hypoglycaemia induction), no dose on day 5 (due to the double dose given the day before), then a normal dose for 5 days, and a triple dose on day 11 (prior to hypoglycaemia induction).
Hypoglycaemia induction was carried out during weeks 3 (double dose) and 6 (triple dose) for icodec and on days 4 (double dose) and 11 (triple dose) for glargine U100 while at steady state. To initiate hypoglycaemia induction, participants should not have experienced hypoglycaemia (PG <3.9 mmol/l) within 24 h or have any relevant medical condition that could confound the outcomes or pose unacceptable risk to the participant. Hypoglycaemia induction (Fig. 1b) was initiated at 16:00 hours 2 days after double/triple icodec dosing (44 h post dose) and on the day of double/triple glargine U100 dosing (7 h post dose). These timings were selected since they approximated the expected time of maximum glucose-lowering effect for both insulin products based on pharmacokinetic/pharmacodynamic modelling performed prior to the trial. For 7.5 h prior to hypoglycaemia induction, PG was kept at 5.5 mmol/l by variable i.v. infusion of glucose (20% wt/vol) or human soluble insulin (100 U/ml in 99.6 ml saline [154 mmol/l NaCl]). PG was measured by a Super GL2 Glucose Analyzer (Dr. Müller Gerätebau, Freital, Germany). Insulin infusion was terminated 60 min prior to hypoglycaemia induction at the latest. PG was maintained at 5.5 mmol/l±20% from 60 min to 30 min prior to hypoglycaemia induction and at 5.5 mmol/l±10% during the last 30 min prior to hypoglycaemia induction. Hypoglycaemia induction was initiated by terminating glucose infusion, thereby allowing PG to decline towards the minimum (nadir) PG target level of no less than 2.5 mmol/l. The handling of alternative scenarios, e.g. PGnadir >2.5 mmol/l, slow PG decline towards hypoglycaemia or slow recovery from hypoglycaemia, is described in electronic supplementary material (ESM) Methods. The investigator recorded if the PGnadir was <3.0 mmol/l or ≥3.0 mmol/l with hypoglycaemic symptoms. The PGnadir level was maintained for 15 min by variable i.v. glucose as needed. Subsequently, euglycaemia was restored by constant i.v. glucose (5.5 mg kg^−1 min^−1) until PG was 5.5 mmol/l, which was maintained until the next morning (between 07:00 hours and 09:00 hours) by variable i.v. glucose. During hypoglycaemia induction, participants remained fasted (except for water ad libitum) and stayed in a supine or semi-supine position (except when cognitive tests were performed). Participants stayed at the clinical site for at least 12 h following each hypoglycaemia induction experiment. […]

[2] = test system: individuals with type 2 diabetes; test: Cognitive function: four-choice reaction time (4CRT) test; conditions: for Change in 4CRT correctness at PG3.0 mmol/l, least-squares mean / Change in 4CRT response time at PG3.0 mmol/l, least-squares mean / Change in 4CRT correctness at PGnadir, least-squares mean / Change in 4CRT response time at PGnadir, least-squares mean: change from baseline, subgroup
Method: Hypoglycaemic response assessments were conducted at predefined PG levels during hypoglycaemia development and recovery (Fig. 1b). Hypoglycaemic symptoms score (HSS), hypoglycaemia awareness, counterregulatory hormones, vital signs and cognitive function tests were assessed at baseline (PG5.5 mmol/l), during hypoglycaemia development (PG3.9 mmol/l and PG3.0 mmol/l) and at PGnadir.
Cognitive function was assessed using the trail making B (TMB) test, the digit symbol substitution test (DSST) and the four-choice reaction time (4CRT) test. In the TMB test from the Halstead Reitan Neuropsychological Battery [16, 17], the participant connects 25 circles distributed on a chart in the correct sequence as quickly as possible. The circles contain a number (1–13) or a letter (A–L), and the correct sequence consists of alternating numbers and letters (i.e. 1–A–2–B–3 etc). The test result is the time needed to complete the task correctly. In the DSST, which is a subtest of the Wechsler Adult Intelligence Scale - Revised [18], nine digits are represented by nine different symbols. During 90 s, the participant is requested to write down the appropriate symbol for as many numbers as possible in a given array. The test result is the number of correct responses. […] In 100 cycles, the participant responds by pressing the corresponding position on a keypad. The test result has two components: percentage of correct answers and the mean response time.
Changes in HSS, vital signs and cognitive function tests from baseline (PG5.5 mmol/l) to PG3.0 mmol/l and to PGnadir were compared between insulin products at each of the two dose levels using the same approach as described for PGnadir, except that no logarithmic transformation was done and that the baseline value was included as a covariate. Least-squares means, treatment difference and 95% CI were derived.

[3] = double dose, n=15 icodec, 13 glargine U100
[4] = triple dose, n=18 icodec, 22 glargine U100
[5] = double dose, n=16 icodec, 15 glargine U100
[6] = double dose, n=18 icodec, 17 glargine U100
[7] = triple dose, n=19 icodec, 28 glargine U100
[8] = triple dose, n=20 icodec, 27 glargine U100

With insulin icodec the “Time to full recovery from hypoglycaemia” value ([1]; constant i.v. glucose infusion at 5.5 mg kg^−1 min^−1, double and triple doses) was at most 30 min, the “Glucose needed from PGnadir to PG5.5 mmol/l, treatment ratio (95% CI) icodec vs glargine U100” value ([1]; double dose) was 1.27 (1.05, 1.53) and the “Time to decline from PG5.5 mmol/l to PG3.0 mmol/l, treatment ratio (95% CI) icodec vs glargine U100” value ([1]; double dose) was 0.64 (0.31, 1.33). For the same substance, the “Time to decline from PG5.5 mmol/l to PG3.9 mmol/l, treatment ratio (95% CI) icodec vs glargine U100” value ([1]; double dose) was 0.62 (0.48, 0.78), the “Time to recovery from PGnadir to PG5.5 mmol/l, treatment ratio (95% CI) icodec vs glargine U100” value ([1]; double dose) was 1.34 (1.16, 1.55) and the “Mean PGnadir, treatment ratio (95% CI) icodec vs glargine U100” value ([1]; double dose) was 0.97 (0.94, 1.00). The “Mean PGnadir, estimated geometric mean” value ([1]; double dose, n=43 icodec, 42 glargine U100) was 3.2 mmol/L, the “Time to recovery from PGnadir to PG5.5 mmol/l, estimated geometric mean” value [1, 3] was 28.3 min and the “Glucose needed from PGnadir to PG5.5 mmol/l, estimated geometric mean” value [1, 3] was 141 mg/kg. The “Time to decline from PG5.5 mmol/l to PG3.9 mmol/l, estimated geometric mean” value ([1]; double dose, n=20 icodec, 19 glargine U100) was 0.7 h, the “Time to decline from PG5.5 mmol/l to PG3.0 mmol/l, estimated geometric mean” value ([1]; double dose, n=17 icodec, 15 glargine U100) was 2.9 h and the “Mean PGnadir in the subgroup analysis, treatment ratio [95% CI] icodec vs glargine U100” value ([1]; double dose) was 1.01. For the same substance, the “Mean PGnadir in the subgroup analysis” value ([1]; double dose) was 2.9 mmol/L, the “Glucose needed from PGnadir to PG5.5 mmol/l, treatment ratio (95% CI) icodec vs glargine U100” value ([1]; triple dose) was 1.02 (0.83, 1.24) and the “Time to decline from PG5.5 mmol/l to PG3.0 mmol/l, treatment ratio (95% CI) icodec vs glargine U100” value ([1]; triple dose) was 1.05 (0.68, 1.64). For the same substance, the “Time to decline from PG5.5 mmol/l to PG3.9 mmol/l, treatment ratio (95% CI) icodec vs glargine U100” value ([1]; triple dose) was 0.90 (0.78, 1.04), the “Time to recovery from PGnadir to PG5.5 mmol/l, treatment ratio (95% CI) icodec vs glargine U100” value ([1]; triple dose) was 1.02 (0.82, 1.28) and the “Mean PGnadir, treatment ratio (95% CI) icodec vs glargine U100” value ([1]; triple dose) was 1.07 (1.04, 1.11). The “Mean PGnadir, estimated geometric mean” value ([1]; triple dose, n=38 icodec, 40 glargine U100) was 3.1 mmol/L, the “Time to recovery from PGnadir to PG5.5 mmol/l, estimated geometric mean” value [1, 4] was 23.8 min and the “Glucose needed from PGnadir to PG5.5 mmol/l, estimated geometric mean” value [1, 4] was 116 mg/kg. For the same substance, the “Time to decline from PG5.5 mmol/l to PG3.9 mmol/l, estimated geometric mean” value ([1]; triple dose, n=20 icodec, 29 glargine U100) was 0.7 h, the “Time to decline from PG5.5 mmol/l to PG3.0 mmol/l, estimated geometric mean” value ([1]; triple dose, n=20 icodec, 28 glargine U100) was 2.4 h and the “Mean PGnadir in the subgroup analysis, treatment ratio [95% CI] icodec vs glargine U100” value ([1]; triple dose) was 1.05. The “Mean PGnadir in the subgroup analysis” value ([1]; triple dose) was 2.9 mmol/L, the “Change in 4CRT correctness at PG3.0 mmol/l, treatment difference (95% CI) icodec vs glargine U100” value ([2]; double dose) was 0.2 (-1.1, 1.4) and the “Change in 4CRT correctness at PGnadir, treatment difference (95% CI) icodec vs glargine U100” value ([2]; double dose) was -0.2 (-1.3, 0.9). The “Change in 4CRT response time at PG3.0 mmol/l, treatment difference (95% CI) icodec vs glargine U100” value ([2]; double dose) was -79.7 (-170.4, 10.9), the “Change in 4CRT response time at PGnadir, treatment difference (95% CI) icodec vs glargine U100” value ([2]; double dose) was -97.1 (-230.5, 36.3) and the “Change in 4CRT correctness at PG3.0 mmol/l, least-squares mean” value [2, 5] was 0.1 %-points. The “Change in 4CRT response time at PG3.0 mmol/l, least-squares mean” value [2, 5] was 19.7 ms, the “Change in 4CRT correctness at PGnadir, least-squares mean” value [2, 6] was -0.3 %-points and the “Change in 4CRT response time at PGnadir, least-squares mean” value [2, 6] was 40.4 ms. For the same substance, the “Change in 4CRT correctness at PG3.0 mmol/l, treatment difference (95% CI) icodec vs glargine U100” value ([2]; triple dose) was 0.1 (-0.7, 0.9), the “Change in 4CRT correctness at PGnadir, treatment difference (95% CI) icodec vs glargine U100” value ([2]; triple dose) was 0.4 (-0.9, 1.7) and the “Change in 4CRT response time at PG3.0 mmol/l, treatment difference (95% CI) icodec vs glargine U100” value ([2]; triple dose) was 11.8 (-44.0, 67.6). For the same substance, the “Change in 4CRT response time at PGnadir, treatment difference (95% CI) icodec vs glargine U100” value ([2]; triple dose) was -66.7 (-155.8, 22.4), the “Change in 4CRT correctness at PGnadir, least-squares mean” value [2, 7] was -0.3 %-points and the “Change in 4CRT response time at PGnadir, least-squares mean” value [2, 7] was 21.3 ms. For the same substance, the “Change in 4CRT correctness at PG3.0 mmol/l, least-squares mean” value [2, 8] was -0.3 %-points and the “Change in 4CRT response time at PG3.0 mmol/l, least-squares mean” value [2, 8] was 55.4 ms.
